# According to US7943603B2, “Medical uses of a selective estrogen receptor modulator in combination with sex steroid precursors” (Endorecherche, Inc., priority 1998, dated 2011):
# Entries after “also recorded” stand apart in the source; their conditions may differ.
# Assays:
# [1] = tested on: ovariectomized rats; details: treatment with 5-diol
# [2] = tested on: DMBA-induced mammary carcinoma; assay: Development of DMBA-induced mammary carcinoma in the rat; type: in vivo; details: 279 days after DMBA
# Method: (§1) Female Sprague-Dawley rats [Crl:CD(SD)Br] were obtained at 44-46 days of age from Charles River Canada Inc. (St. Constant, Quebec) and housed 2 per cage in a light (12 h light/day; lights on at 07:15 h)-and temperature (22±2° C.)-controlled environment. Animals received Purina rodent chow and tap water ad libitum. The animal studies were conducted in a Canadian Council on Animal Care (CCAC)-approved facility in agreement with the CCAC Guide for Care and Use of Experimental Animals.
# Mammary carcinomas were induced by a single intragastric administration of 20 mg of DMBA (Sigma Chemical Co., St. Louis, Mo.) in 1 ml of corn oil at 50-52 days of age. Two months later, tumor measurement was performed biweekly. The two largest perpendicular diameters of each tumor were recorded with calipers to estimate tumor size as described (Asselin et al., Endocrinology 101: 666-671, 1977). Tumor site, size and number were recorded.
# (§2) The animals were randomly divided into groups each containing 20 rats with the exception of 40 animals in the control group. […] Treatment was initiated 3 days before the oral administration of DMBA. EM-800 was synthesized in the Medicinal Chemistry Division of our laboratory while DHEA was purchased from Steraloids Inc., Wilton, N.H.
# Many of the control animals and some of EM-800- or DHEA-treated animals were sacrificed by cervical dislocation under isoflurane-induced anesthesia 6 months after DMBA administration because of the too large size of tumors. The values of tumor size and number of these rats at sacrifice, together with those measured at later time intervals from the surviving animals, were used for the later analysis of the incidence of tumors, average tumor number per tumor-bearing rat and average tumor size per tumor-bearing animal. […] Rats were sacrificed 279 days after DMBA administration.
# Statistical significance was measured according to the multiple range test of Duncan-Kramer (Biometrics 12: 307-310, 1956). Analysis of the incidence of development of mammary tumors was performed using the Fisher's exact test (Conover, Practical nonparametric statistics, 2nd Edition 153-170, 1980). The data are presented as means±S.E.M.
# [3] = tested on: human ZR-75-1 breast tumor xenografts; assay: Growth of human ZR-75-1 breast tumor xenografts in OVX nude mice supplemented with estrone; details: 9.5 months
# [4] = Example 5 table: serum, urinary and GnRH mRNA parameters in OVX groups; type: in vivo; details: doses not given; for LH: LD: Limit of Detection: 0.01 ng/ml
# [5] = aged Sprague-Dawley rats; reduced from 600 g, food intake unaffected; cited from earlier work
# [6] = tested on: ovariectomized (OVX) nude mice supplemented with estrone; assay: Uterine, vaginal and body weight in OVX nude mice bearing ZR-75-1 xenografts; details: OVX+E1 nude mice
# Method: A posteriori pairwise comparisons were performed using Fisher's test for least significant difference. Main effects and the interaction of treatments on body weight and organ weight were analyzed using a standard two-way ANOVA with interactions. All ANOVAs were performed using SAS program (SAS Institute, Cary, N.C., USA). Significance of differences were declared using a 2-tailed test with an overall level of 5%.
# [7] = tested on: rat; assay: Urine and serum biochemical parameters of bone metabolism; type: in vivo; details: DHEA 10 mg percutaneously, EM-800 75 μg orally, once daily, alone or in combination, 9 months
# Excerpt: as §2
# (§3) Twenty-four-hour urinary samples were collected at the end of the experiment from the first 9 rats of each group following transfer in metabolic cages (Allentown Caging Equipment Co., Allentown, N.J.). Two urinary samples were collected and analyzed on different days for each animal in order to minimize the influence of daily variation. Therefore, each value shown represents the mean of the two measurements performed on two different days. 0.5 ml of toluene was added into the urine collecting tubes to prevent urine evaporation and bacterial growth and the urinary volume was recorded. Trunk blood was collected at sacrifice and was allowed to clot at 4° C. overnight before centrifugation at 3000 rpm for 30 min.
# (§4) Fresh samples were used for the assay of urinary creatinine, calcium, and phosphorus as well as serum total alkaline phosphatase (tALP) activity, cholesterol and triglycerides. These biochemical parameters were measured automatically with a Monarch 2000 Chemistry System (Instrumentation Laboratory Co. Lexington, Mass.) under Good Laboratory Practice conditions. Urinary hydroxyproline was measured as described (Podenphant et al., Clinica Chimica Acta 142: 145-148, 1984).
# [8] = tested on: female rat; assay: Bone mineral density (DEXA) after 9-month treatment; type: in vivo; details: DHEA 10 mg percutaneously, EM-800 75 μg orally, once daily, alone or in combination, 9 months
# Method: as §1, §2
# Rats were anesthetized with an i.p. injection of ketamine hydrochloride and diazepam at doses of 50 and 4 mg/kg B.W., respectively. The whole skeleton and the right femur were scanned using dual energy X-ray absorptiometry (DEXA; QDR 2000-7.10C, Hologic, Waltham, Mass.) equipped with a Regional High Resolution software. The scan field sizes were 28.110×17.805 cm and 5.0×1.902 cm, the resolutions were 0.1511×0.0761 cm and 0.0254×0.0127 cm, while the scan speeds were 0.3608 and 0.0956 mm/sec for total skeleton and femur, respectively. Both bone mineral content (BMC) and bone mineral density (BMD) of total skeleton, lumbar spine, and femur were measured on the scan images of total skeleton and femur.
# [9] = tested on: rat; assay: Serum triglyceride and cholesterol levels after 9-month treatment; type: in vivo; details: DHEA 10 mg percutaneously, EM-800 75 μg orally, once daily, alone or in combination, 9 months
# Excerpt: as §2, §3, §4
# [10] = tested on: ovariectomized rats; assay: Bone histomorphometry of tibia after 12-month treatment of ovariectomized rats; type: in vivo, rat; details: 12 months, histology
# Method: Intact animals are added as additional controls. Data are presented as mean±SEM **p<0.01 versus OVX Control.
# Modified trichrome Masson-Goldner, magn. ×80. T: Trabeculae, GP: Growth Plate.
# [11] = biological target: T1, estrogen receptor (Homo sapiens, UniProt P03372); assay: Testing of antiestrogens for function as SERM
# T1 sequence (P03372 1-595): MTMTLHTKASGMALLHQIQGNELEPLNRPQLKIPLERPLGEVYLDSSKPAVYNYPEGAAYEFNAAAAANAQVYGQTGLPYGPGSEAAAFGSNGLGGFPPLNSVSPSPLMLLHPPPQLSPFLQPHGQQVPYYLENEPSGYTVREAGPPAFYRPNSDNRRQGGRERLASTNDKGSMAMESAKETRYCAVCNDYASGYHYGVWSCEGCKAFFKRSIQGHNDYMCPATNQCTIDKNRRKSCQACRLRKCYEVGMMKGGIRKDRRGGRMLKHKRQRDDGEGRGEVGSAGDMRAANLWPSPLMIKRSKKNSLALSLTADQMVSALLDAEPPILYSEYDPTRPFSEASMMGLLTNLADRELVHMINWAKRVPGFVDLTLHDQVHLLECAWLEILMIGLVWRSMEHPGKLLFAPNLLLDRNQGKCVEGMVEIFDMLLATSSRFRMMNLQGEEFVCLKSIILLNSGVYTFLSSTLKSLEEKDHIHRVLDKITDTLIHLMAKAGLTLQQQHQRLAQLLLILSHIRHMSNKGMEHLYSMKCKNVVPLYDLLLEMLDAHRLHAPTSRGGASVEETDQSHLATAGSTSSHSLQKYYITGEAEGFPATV
# [12] = Solid state stability; type: physicochemical
# [13] = tested on: postmenopausal women; details: cited from earlier work
# [14] = DHEA 0.3 mg percutaneously, alone or with EM-800 15 μg, OVX+E1 0.5 μg nude mice
# [15] = DHEA 1.0 mg percutaneously, alone or with EM-800 15 μg, OVX+E1 0.5 μg nude mice
# [16] = DHEA 3.0 mg percutaneously, alone or with EM-800 15 μg, OVX+E1 0.5 μg nude mice
# [17] = E1 0.5 μg s.c. daily alone, OVX nude mice
smiles,measurement,setting,value
"C[C@]12CC[C@H]3[C@@H](CC=C4C[C@@H](O)CC[C@@]43C)[C@@H]1CC[C@@H]2O [5-diol, androst-5-ene-3β,17β-diol]",serum alkaline phosphatase activity,[1],marked stimulation
"C[C@]12CC[C@H](O)CC1=CC[C@@H]1[C@@H]2CC[C@]2(C)C(=O)CC[C@@H]12 [DHEA, dehydroepiandrosterone]",incidence of DMBA-induced mammary carcinoma (animals with palpable tumors),"[2]; DHEA 10 mg percutaneously, EM-800 75 μg orally, once daily, control 95%",57%
same,average tumor number per tumor-bearing animal,"[2]; end of experiment, DHEA 10 mg, EM-800 75 μg daily, control 4.7±0.5",3.4±0.7 tumors/animal
same,average tumor area per tumor-bearing animal,"[2]; end of experiment, DHEA 10 mg, EM-800 75 μg daily, control 12.8±1.3",10.2±2.1 cm^2
same,"Complete response, (%)",[3]; [14],28.6%
same,"Complete response, number",[3]; [14],4
same,"Partial response, (%)",[3]; [14],0 (0) %
same,"Partial response, number",[3]; [14],0 (0)
same,"Progression, (%)",[3]; [14],50.0%
same,"Progression, number",[3]; [14],7
same,"Stable response, (%)",[3]; [14],21.4%
same,"Stable response, number",[3]; [14],3
same,"Complete response, (%)",[3]; [15],26.7%
same,"Complete response, number",[3]; [15],4
same,"Partial response, (%)",[3]; [15],0 (0) %
same,"Partial response, number",[3]; [15],0 (0)
same,"Progression, (%)",[3]; [15],53.3%
same,"Progression, number",[3]; [15],8
same,"Stable response, (%)",[3]; [15],20.0%
same,"Stable response, number",[3]; [15],3
same,"Complete response, (%)",[3]; [16],20.0%
same,"Complete response, number",[3]; [16],3
same,"Partial response, (%)",[3]; [16],0 (0) %
same,"Partial response, number",[3]; [16],0 (0)
same,"Progression, (%)",[3]; [16],66.7%
same,"Progression, number",[3]; [16],10
same,"Stable response, (%)",[3]; [16],13.3%
same,"Stable response, number",[3]; [16],2
same,GnRH mRNA levels silver grains per cell,[4],34.5 ± 0.7 silver grains per cell
same,Triglycerides,[4],0.8 ± 0.1 mmol/L
same,Urinary OH-proline/creatinin,[4],7.3 ± 1.0 μmol/mmol
same,LH,[4],0.02 ± 0.01 ng/mL
same,body weight,[5],550 g
same,effect of addition of DHEA on estrone-stimulated vaginal weight,"[6]; DHEA 0.3, 1.0 or 3.0 mg",no significant effect
same,effect on body weight adjusted for tumor weight,[6]; 9.5 months,No significant effect
same,decrease of daily urinary calcium excretion versus control,[7],no effect
same,decrease of daily urinary phosphorus excretion versus control,[7],no effect
same,decrease of urinary hydroxyproline/creatinine ratio versus control,[7],no effect; also recorded: did not affect; also recorded: did not show any effect
same,BMD FEMUR,[8],0.3408 ± 0.0038 g/cm2
same,BMD LUMBAR SPINE,[8],0.2163 ± 0.0049 g/cm2
same,BMD TOTAL SKELETON,[8],0.1465 ± 0.0010 g/cm2
same,increase in BMD of femur versus control,[8],8.2%
same,increase in BMD of lumbar spine versus control,[8],10.6%
same,increase in BMD of total skeleton versus control,[8],6.9%
same,decrease of serum cholesterol levels,[9],unaffected
same,decrease of serum triglyceride levels,[9],60%
same,effect on trabecular bone volume of proximal tibia metaphysis (FIG. 8),[10],significant increase in trabecular bone volume
C[C@]12CCC(=O)C[C@@H]1CC[C@@H]1[C@@H]2CC[C@]2(C)[C@@H](O)CC[C@@H]12 [DHT],Cholesterol,[4],2.44 ± 0.16 mmol/L
same,GnRH mRNA levels silver grains per cell,[4],38.8 ± 0.7 silver grains per cell
same,Serum Alkaline phosphatase,[4],56 ± 5 IU/L
same,Triglycerides,[4],0.9 ± 0.1 mmol/L
same,Urinary OH-proline/creatinin,[4],7.8 ± 0.7 μmol/mmol
same,LH,[4],1.55 ± 0.27 ng/mL
CC/C(=C(/c1ccc(OCCN(C)C)cc1)c1cccc(O)c1)c1ccccc1 [Droloxifene],function as SERM,[11],found to function as SERMs
"C[C@]12CC[C@@H]3c4ccc(O)cc4CC[C@H]3[C@@H]1CC[C@@H]2O [E2, 17β-estradiol]",Cholesterol,[4],2.02 ± 0.15 mmol/L
same,GnRH mRNA levels silver grains per cell,[4],40.4 ± 0.8 silver grains per cell
same,Serum Alkaline phosphatase,[4],41 ± 5 IU/L
same,Triglycerides,[4],0.8 ± 0.1 mmol/L
same,Urinary OH-proline/creatinin,[4],9.2 ± 0.9 μmol/mmol
same,LH,[4],2.37 ± 0.45 ng/mL
"CC1=C(c2ccc(O)cc2)[C@H](c2ccc(OCCN3CCCCC3)cc2)Oc2cc(O)ccc21.Cl [EM-01538, (S)-(+)-7-hydroxy-3-(4′-hydroxyphenyl)-4-methyl-2-(4″-(2′″-piperidinoethoxy)phenyl)-2H-1-benzopyran hydrochloride]",solid state stability,[12],good solid state stability
"C[C@]12CC[C@@H]3c4ccc(O)cc4C[C@@H](CCCCCCCCC[S+]([O-])CCCC(F)(F)C(F)(F)F)[C@H]3[C@@H]1CC[C@@H]2O (some centres unmarked) [ICI 182,780]",function as SERM,[11],found not to function as SERMs
CC(=O)O[C@]1(C(C)=O)CC[C@H]2[C@@H]3C[C@H](C)C4=CC(=O)CC[C@]4(C)[C@H]3CC[C@@]21C [MPA],Cholesterol,[4],2.55 ± 0.14 mmol/L
same,GnRH mRNA levels silver grains per cell,[4],35.5 ± 0.7 silver grains per cell
same,Serum Alkaline phosphatase,[4],57 ± 4 IU/L
same,Triglycerides,[4],1.3 ± 0.1 mmol/L
same,Urinary OH-proline/creatinin,[4],11.7 ± 1.2 μmol/mmol
same,LH,[4],2.51 ± 0.20 ng/mL
C[C@]12CC[C@@H]3c4ccc(O)cc4CC[C@H]3[C@@H]1CCC2=O [estrone],"Complete response, (%)",[3]; [17],0%
same,"Complete response, number",[3]; [17],0 (0)
same,"Partial response, (%)",[3]; [17],0 (0) %
same,"Partial response, number",[3]; [17],0 (0)
same,"Progression, number",[3]; [17],14
same,"Stable response, (%)",[3]; [17],12.5%
same,"Stable response, number",[3]; [17],2
same,"Complete response, (%)","[3]; E1 0.5 μg s.c. daily alone, OVX nude mice, listed as E1",0 (0) %
C[C@]12CC[C@H]3[C@@H](CCC4=CC(=O)CC[C@@H]43)[C@@H]1CC[C@@H]2O [nandrolone],patients with androgenic side-effects,[13],50%
